Laboratory results taken from patent publication US20260226071A1, “2, 4-DIANILINOPYRIMIDINE-BASED AURORA-A KINASE SELECTIVE DEGRADATION INDUCING COMPOUNDS” (UPPTHERA, INC., priority 2023, published 2026).

Experiments:
Aurora kinase A (AURKA) = target: T1, Aurora kinase A (AURKA) (Homo sapiens, UniProt O14965); test: Luciferase assay for AURKA in HeLa LgBit (AURKA-HiBit KI) cell line; assay type: cell-based; conditions: HeLa LgBit (AURKA-HiBit KI) cells, measured after 12 hours
T1 construct: endogenous in cells; host or cells: HeLa LgBit (AURKA-HiBit KI), CRISPR/Cas9 knock-in at the endogenous AURKA locus
T1 sequence (O14965 1-403): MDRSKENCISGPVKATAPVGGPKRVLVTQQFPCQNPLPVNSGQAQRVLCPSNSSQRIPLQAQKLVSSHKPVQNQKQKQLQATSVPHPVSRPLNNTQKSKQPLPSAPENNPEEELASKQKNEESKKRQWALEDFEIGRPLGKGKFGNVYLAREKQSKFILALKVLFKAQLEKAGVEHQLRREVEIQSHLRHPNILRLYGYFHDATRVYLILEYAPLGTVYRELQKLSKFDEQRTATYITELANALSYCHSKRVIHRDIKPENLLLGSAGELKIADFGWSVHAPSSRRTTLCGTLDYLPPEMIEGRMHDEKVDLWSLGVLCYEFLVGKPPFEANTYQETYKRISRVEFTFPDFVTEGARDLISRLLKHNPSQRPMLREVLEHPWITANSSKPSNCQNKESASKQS
Procedure, shortened: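 HeLa cells stably expressing LgBit, with HiBit knocked in at the C-terminus of endogenous AURKA; 3×10^4 cells seeded, 18 h, then Endurazine substrate 2 h. Compounds tested at 10 nM or 100 nM; luminescence read at 470-480 nm after 12 h as real-time read-out.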

NCI-H446 cell line = test: Cell viability assay for NCI-H446 cell line; assay type: cell-based; conditions: Homo sapiens, NCI-H446, 120 h; H446 cells, 5 days culture, EZ-Cytox; read-out: IC50 value (Level)
Procedure, shortened: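 H446 cells seeded 24 h before treatment with compound in 3-fold dilutions, 1000 to 0.15 nM, then cultured 5 days at 37 °C, 5% CO2 in RPMI 1640/10% FBS. Viability read with EZ-Cytox (4 h) as absorbance at 450 nm.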

Row | Structure (SMILES) | luminescence value (Level) (Aurora kinase A (AURKA); 10 nM compound) | luminescence value (Level) (Aurora kinase A (AURKA); 100 nM compound) | IC50 (NCI-H446 cell line) [nM]
1 | O=C1CCC(Nc2cc(F)c(N3CCN(CCC4CCN(NC(=O)c5ccc(Nc6ncc(F)c(Nc7ccc(NC(=O)c8ccccc8F)cc7)n6)cc5F)CC4)CC3)cc2F)C(=O)N1 (stereo not drawn) [Compound 109, N-(4-(2-(4-(4-((2,6-dioxopiperidin-3-yl)amino)-2,5-difluorophenyl)piperazin-1-yl)ethyl)piperidin-1-yl)-2-fluoro-4-((5-fluoro-4-((4-(2-fluorobenzamido)phenyl)amino)pyrimidin-2-yl)amino)benzamide] | B (B is 0.3 to 0.5) | A (A is <0.2) | 50 to 100
2 | O=C1CCC(c2ccc(N3CCN(CCC4CCN(C(=O)c5ccc(Nc6ncc(F)c(Nc7ccc(C(=O)Nc8ccccc8Cl)cc7)n6)cc5)CC4)CC3)cc2)C(=O)N1 (stereo not drawn) [Compound 110, N-(2-chlorophenyl)-4-[[2-[4-[4-[2-[4-[4-(2,6-dioxo-3-piperidyl)phenyl]piperazin-1-yl]ethyl]piperidine-1-carbonyl]anilino]-5-fluoro-pyrimidin-4-yl]amino]benzamide] | C (C is 0.5 to 0.7) | B (B is 0.2 to 0.4) | 150 to 200
3 | O=C1CC[C@@H](Nc2ccc(N3CCN(CCC4CCN(NC(=O)c5ccc(Nc6ncc(F)c(Nc7ccc(C(=O)Nc8ccccc8Cl)cc7)n6)cc5)CC4)CC3)cc2F)C(=O)N1 [Compound 111, (R)—N-(2-chlorophenyl)-4-((2-((4-((4-(2-(4-(4-((2,6-dioxopiperidin-3-yl)amino)-3-fluorophenyl)piperazin-1-yl)ethyl)piperidin-1-yl)carbamoyl)phenyl)amino)-5-fluoropyrimidin-4-yl)amino)benzamide] | A (A is <0.3) | A (A is <0.2) | < 50
4 | O=C1CCC(c2cc(F)c(N3CCN(CCC4CCN(NC(=O)c5ccc(Nc6ncc(F)c(Nc7ccc(NC(=O)c8ccccc8F)cc7)n6)cc5F)CC4)CC3)cc2F)C(=O)N1 (stereo not drawn) [Compound 112, N-[4-[2-[4-[4-(2,6-dioxo-3-piperidyl)-2,5-difluoro-phenyl]piperazin-1-yl]ethyl]-1-piperidyl]-2-fluoro-4-[[5-fluoro-4-[4-[(2-fluorobenzoyl)amino]anilino]pyrimidin-2-yl]amino]benzamide] | A (A is <0.3) | A (A is <0.2) | < 50
5 | C[C@H]1CN(c2ccc(C3CCC(=O)NC3=O)cc2)CCN1CCC1CCN(NC(=O)c2ccc(Nc3ncc(F)c(Nc4ccc(C(=O)Nc5ccccc5Cl)cc4)n3)cc2)CC1 (stereo partly drawn) [Compound 113, N-(2-chlorophenyl)-4-((2-((4-((4-(2-((2S)-4-(4-(2,6-dioxopiperidin-3-yl)phenyl)-2-methylpiperazin-1-yl)ethyl)piperidin-1-yl)carbamoyl)phenyl)amino)-5-fluoropyrimidin-4-yl)amino)benzamide] | A (A is <0.3) | A (A is <0.2) | < 50
6 | C[C@H]1CN(CCC2CCN(NC(=O)c3ccc(Nc4ncc(F)c(Nc5ccc(C(=O)Nc6ccccc6Cl)cc5)n4)cc3)CC2)CCN1c1ccc(C2CCC(=O)NC2=O)cc1 (stereo partly drawn) [Compound 114, N-(2-chlorophenyl)-4-((2-((4-((4-(2-((3S)-4-(4-(2,6-dioxopiperidin-3-yl)phenyl)-3-methylpiperazin-1-yl)ethyl)piperidin-1-yl)carbamoyl)phenyl)amino)-5-fluoropyrimidin-4-yl)amino)benzamide] | A (A is <0.3) | A (A is <0.2) | < 50
7 | C[C@@H]1CN(CCC2CCN(NC(=O)c3ccc(Nc4ncc(F)c(Nc5ccc(C(=O)Nc6ccccc6Cl)cc5)n4)cc3)CC2)CCN1c1ccc(C2CCC(=O)NC2=O)cc1 (stereo partly drawn) [Compound 116, N-(2-chlorophenyl)-4-((2-((4-((4-(2-((3R)-4-(4-(2,6-dioxopiperidin-3-yl)phenyl)-3-methylpiperazin-1-yl)ethyl)piperidin-1-yl)carbamoyl)phenyl)amino)-5-fluoropyrimidin-4-yl)amino)benzamide] | A (A is <0.3) | A (A is <0.2) | < 50
8 | COc1cc(N2CCN(CCC3CCN(NC(=O)c4ccc(Nc5ncc(F)c(Nc6ccc(C(=O)Nc7ccccc7Cl)cc6)n5)cc4)CC3)CC2)c(F)cc1NC1CCC(=O)NC1=O (stereo not drawn) [Compound 117, N-(2-chlorophenyl)-4-((2-((4-((4-(2-(4-(4-((2,6-dioxopiperidin-3-yl)amino)-2-fluoro-5-methoxyphenyl)piperazin-1-yl)ethyl)piperidin-1-yl)carbamoyl)phenyl)amino)-5-fluoropyrimidin-4-yl)amino)benzamide] | A (A is <0.3) | A (A is <0.2) | < 50
9 | COc1cc(N2CCN(CCC3CCN(NC(=O)c4ccc(Nc5ncc(F)c(Nc6ccc(C(=O)Nc7ccccc7Cl)cc6)n5)cc4)CC3)CC2)c(F)cc1C1CCC(=O)NC1=O (stereo not drawn) [Compound 118, N-(2-chlorophenyl)-4-((2-((4-((4-(2-(4-(4-(2,6-dioxopiperidin-3-yl)-2-fluoro-5-methoxyphenyl)piperazin-1-yl)ethyl)piperidin-1-yl)carbamoyl)phenyl)amino)-5-fluoropyrimidin-4-yl)amino)benzamide] | B (B is 0.3 to 0.5) | A (A is <0.2) | 50 to 100
